Activity calls are given as the source filed them. The rule behind the calls is not given here.
Legend:
[1] = target: T1, AMP-activated protein kinase, AMPK (Homo sapiens) (UniProt P54646+O43741+P54619+Q9UGJ0+Q9Y478+Q13131+Q9UGI9); assay: Induction of AMPK phosphorylation in human HepG2 cells at 10 uM by Western blot analysis in presence of 33 mM glucose; format: cell-based
[2] = target: Glycogen synthase kinase-3 beta (Homo sapiens) (UniProt P49841); assay: Induction of GSK3-beta phosphorylation in human HepG2 cells at 10 uM by Western blot analysis in presence of 33 mM glucose; format: cell-based
[3] = Cytotoxicity against human HepG2 cells assessed as cell survival at 10 uM after 24 hrs by MTT assay; format: cell-based; settings: read-out: Survival
[4] = Cytotoxicity against human HepG2 cells assessed as cell survival at 20 uM after 24 hrs by MTT assay; format: cell-based; settings: read-out: Survival
HepG2 [5] = assay: Induction of glucose uptake in human HepG2 cells at 10 uM in presence of 33 mM […] by scintillation counting; format: functional, cell-based
[6] = Cytotoxicity against human HepG2 cells assessed as cell survival at 5 uM after 24 hrs by MTT assay; format: cell-based; settings: read-out: Survival
[7] = Cytotoxicity against human HepG2 cells assessed as cell survival at 100 uM after 24 hrs by MTT assay; format: cell-based; settings: read-out: Survival
HepG2 [8] = assay: Increase in glycogen synthesis in human HepG2 cells assessed as incorporation of [14C]glucose in to cellular glycogen pools at 10 uM after 60 mins in presence of 33 mM glucose; format: functional, cell-based
HepG2 [9] = assay: Induction of acetyl-coA carboxylase phosphorylation in human HepG2 cells by Western blot analysis in presence of 33 mM glucose; format: cell-based
HepG2 [10] = assay: Induction of glucose uptake in human HepG2 cells in presence of 33 mM […] by scintillation counting; format: functional, cell-based
HepG2 [11] = assay: Increase in glycogen synthesis in human HepG2 cells assessed as incorporation of [14C]glucose in to cellular glycogen pools at 1 uM after 60 mins in presence of 33 mM glucose; format: functional, cell-based
[12] = target: T1, AMP-activated protein kinase, AMPK (Homo sapiens); assay: Induction of AMPK phosphorylation in human HepG2 cells by Western blot analysis in presence of 33 mM glucose; format: cell-based
[13] = target: Glycogen synthase kinase-3 beta (Homo sapiens) (UniProt P49841); assay: Induction of GSK3-beta phosphorylation in human HepG2 cells by Western blot analysis in presence of 33 mM glucose; format: cell-based

Sequence of Glycogen synthase kinase-3 beta (Homo sapiens) (P49841 whole entry, looked up): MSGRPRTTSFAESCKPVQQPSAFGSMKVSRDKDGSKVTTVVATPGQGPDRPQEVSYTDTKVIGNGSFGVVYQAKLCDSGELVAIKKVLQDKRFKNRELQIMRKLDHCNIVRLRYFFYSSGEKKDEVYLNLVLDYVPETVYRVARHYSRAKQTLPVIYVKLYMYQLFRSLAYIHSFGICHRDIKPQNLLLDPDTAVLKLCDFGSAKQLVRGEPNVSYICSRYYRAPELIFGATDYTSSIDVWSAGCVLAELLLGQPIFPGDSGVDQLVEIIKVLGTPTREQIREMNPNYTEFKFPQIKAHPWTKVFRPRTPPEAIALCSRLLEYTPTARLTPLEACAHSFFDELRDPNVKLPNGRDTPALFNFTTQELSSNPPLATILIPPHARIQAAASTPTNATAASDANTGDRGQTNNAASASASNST

| Structure (SMILES) | Activity [1] | Activity [2] | viability at 24 h, 10 µM [3] [%] | viability at 24 h, 20 µM [4] [%] | Activity (HepG2 [5]) | viability at 24 h, 5 µM [6] [%] | viability at 24 h, 100 µM [7] [%] | Activity (HepG2 [8]) | Activity (HepG2 [9]) | Activity (HepG2 [10]) | Activity (HepG2 [11]) | Activity [12] | Activity [13] |
| --- | --- | --- | --- | --- | --- | --- | --- | --- | --- | --- | --- | --- | --- |
| CC1(C)CC[C@]2(C(=O)O)CC[C@]3(C)C(=CC[C@@H]4[C@@]5(C)CC[C@H](O)C(C)(C)[C@@H]5CC[C@]43C)[C@@H]2C1 [OLEANOLIC_ACID] | Active | Active | 99.9 | 82.4 | Active | 97.8 | 54.1 | Active |  |  |  |  |  |
| C=C1CC[C@]2(C(=O)O)CC[C@]3(C)C(=CC[C@@H]4[C@@]5(C)CC[C@H](O)[C@@](C)(CO)[C@@H]5CC[C@]43C)[C@@H]2C1 | Active | Active | 96.7 | 84.6 | Active | 100 | 65 | Active |  |  |  |  |  |
| CC[C@H](CC[C@@H](C)[C@H]1CC[C@H]2[C@@H]3CC=C4C[C@@H](O[C@@H]5O[C@H](CO)[C@@H](O)[C@H](O)[C@H]5O)CC[C@]4(C)[C@H]3CC[C@]12C)C(C)C [SITOGLUSIDE] | Active | Active | 92.8 | 82.7 | Active | 99.9 | 66.3 | Active |  |  |  |  |  |
| C[C@H]1[C@H](C)CC[C@]2(C(=O)O)CC[C@]3(C)C(=CC[C@@H]4[C@@]5(C)CC[C@H](O)C(C)(C)[C@@H]5CC[C@]43C)[C@H]12 [URSOLIC ACID] | Active | Active | 99.2 | 82 | Active | 97.1 | 55.8 | Active |  |  |  |  |  |
| CC1(C)[C@@H](O)CC[C@]2(C)[C@H]3C=CC4=C(O)C(=O)C(=O)[C@@]4(C)[C@]3(C)CC[C@@H]12 [PALBINONE] | Active | Active | 99.8 | 81.5 | Active | 98.7 | 41.6 | Active | Dose-dependent effect | Dose-dependent effect | Active | Dose-dependent effect | Dose-dependent effect |
| C=C(C)[C@@H]1CC[C@]2(C(=O)O)CC[C@]3(C)[C@H](CC[C@@H]4[C@@]5(C)CC[C@H](O)C(C)(C)[C@@H]5CC[C@]43C)[C@@H]12 [BETULINIC ACID] | Active | Active | 91.3 | 81.2 | Active | 99.6 | 52.9 | Active |  |  |  |  |  |
| CC[C@H](CC[C@@H](C)[C@H]1CC[C@H]2[C@@H]3CC=C4C[C@@H](O)CC[C@]4(C)[C@H]3CC[C@]12C)C(C)C [BETA-SITOSTEROL] | Active | Active | 99.7 | 82.3 | Active | 98.8 | 57.8 | Active |  |  |  |  |  |
